Measured values published in US20240109917A1 (ACTELION PHARMACEUTICALS LTD, priority 2020, published 2024).
Where two headings read alike, the source gives them in different places.

Assays:
[1] = target: Tb-labeled inactive PDGFRβ (Homo sapiens (Human), UniProt P09619); assay: PDGFRβ LanthaScreen Assay; assay type: binding; conditions: read-out: PDGFR Lantha IC50
PDGFRβ = PDGFRβ (Rattus norvegicus (Rat), UniProt Q05030); assay: PDGFRβ Cellular Assay (PDGFRb P-Y751 HTRF in A10 cells stimulated with PDGF-BB); assay type: cell-based
How it was run: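 Rat A10 cells, plated overnight, were treated with compound for 3 hours, then stimulated with PDGF-BB (working stock 100 ng/mL in 10% FBS medium). After lysis, PDGFRβ P-Y751 was detected by HTRF.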

Sequence of Tb-labeled inactive PDGFRβ (P09619 33-1106): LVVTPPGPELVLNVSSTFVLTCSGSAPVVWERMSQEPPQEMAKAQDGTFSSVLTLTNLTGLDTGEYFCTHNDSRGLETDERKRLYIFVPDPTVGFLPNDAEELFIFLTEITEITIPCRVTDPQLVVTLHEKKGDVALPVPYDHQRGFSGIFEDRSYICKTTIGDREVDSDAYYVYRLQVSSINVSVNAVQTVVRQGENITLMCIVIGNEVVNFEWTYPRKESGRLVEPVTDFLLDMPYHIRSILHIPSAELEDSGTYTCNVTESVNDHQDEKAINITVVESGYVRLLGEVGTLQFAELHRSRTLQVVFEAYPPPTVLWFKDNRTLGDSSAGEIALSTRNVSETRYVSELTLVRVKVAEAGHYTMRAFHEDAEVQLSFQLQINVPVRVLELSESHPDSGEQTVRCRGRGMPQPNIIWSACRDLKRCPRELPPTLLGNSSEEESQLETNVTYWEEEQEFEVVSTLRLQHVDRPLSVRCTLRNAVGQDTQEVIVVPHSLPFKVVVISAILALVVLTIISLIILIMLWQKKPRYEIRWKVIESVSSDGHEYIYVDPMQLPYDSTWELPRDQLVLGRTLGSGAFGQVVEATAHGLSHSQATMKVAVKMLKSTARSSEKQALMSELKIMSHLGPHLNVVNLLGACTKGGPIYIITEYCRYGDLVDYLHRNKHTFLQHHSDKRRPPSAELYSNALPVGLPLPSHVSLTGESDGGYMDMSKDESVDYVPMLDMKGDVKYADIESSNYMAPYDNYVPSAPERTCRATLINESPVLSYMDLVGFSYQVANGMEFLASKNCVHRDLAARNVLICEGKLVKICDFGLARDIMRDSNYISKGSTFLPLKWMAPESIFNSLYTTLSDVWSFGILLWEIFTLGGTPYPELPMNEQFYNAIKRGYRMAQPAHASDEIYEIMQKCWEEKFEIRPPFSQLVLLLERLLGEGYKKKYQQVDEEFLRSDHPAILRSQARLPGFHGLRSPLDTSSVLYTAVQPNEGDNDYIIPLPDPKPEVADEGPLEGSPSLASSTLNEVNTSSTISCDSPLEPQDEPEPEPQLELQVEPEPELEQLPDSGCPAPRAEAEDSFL
Sequence of PDGFRβ (Q05030 32-1097): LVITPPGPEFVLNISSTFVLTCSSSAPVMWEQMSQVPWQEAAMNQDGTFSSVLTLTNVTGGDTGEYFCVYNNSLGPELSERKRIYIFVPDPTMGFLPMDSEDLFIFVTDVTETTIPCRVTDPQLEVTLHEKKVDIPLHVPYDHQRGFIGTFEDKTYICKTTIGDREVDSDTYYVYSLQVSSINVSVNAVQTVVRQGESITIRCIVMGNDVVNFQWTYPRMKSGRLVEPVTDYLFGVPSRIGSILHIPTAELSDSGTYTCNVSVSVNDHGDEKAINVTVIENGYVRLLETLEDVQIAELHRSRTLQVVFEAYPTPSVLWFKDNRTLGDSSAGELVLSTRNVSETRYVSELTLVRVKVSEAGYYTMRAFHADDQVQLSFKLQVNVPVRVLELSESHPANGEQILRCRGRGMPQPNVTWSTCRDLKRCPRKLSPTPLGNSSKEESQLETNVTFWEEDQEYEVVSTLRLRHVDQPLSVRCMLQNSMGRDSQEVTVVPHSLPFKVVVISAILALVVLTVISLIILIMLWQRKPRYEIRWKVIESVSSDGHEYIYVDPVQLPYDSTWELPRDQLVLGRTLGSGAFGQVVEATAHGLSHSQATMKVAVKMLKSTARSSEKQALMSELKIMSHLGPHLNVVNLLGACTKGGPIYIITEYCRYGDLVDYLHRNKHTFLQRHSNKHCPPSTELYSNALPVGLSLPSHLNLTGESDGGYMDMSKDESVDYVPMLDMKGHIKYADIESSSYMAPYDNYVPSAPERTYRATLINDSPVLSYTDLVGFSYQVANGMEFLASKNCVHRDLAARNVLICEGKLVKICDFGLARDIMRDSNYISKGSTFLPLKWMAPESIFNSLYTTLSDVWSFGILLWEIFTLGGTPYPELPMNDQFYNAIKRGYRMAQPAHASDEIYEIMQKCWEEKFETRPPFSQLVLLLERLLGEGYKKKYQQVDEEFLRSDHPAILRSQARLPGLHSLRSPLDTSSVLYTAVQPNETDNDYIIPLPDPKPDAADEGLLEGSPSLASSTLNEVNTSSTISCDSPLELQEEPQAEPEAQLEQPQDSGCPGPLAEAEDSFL

Cc1cc(C(=O)NCCN(C)C2CCCC2)sc1NC(=O)c1cnn2cc(-c3cnn(C)c3)sc12 [Example 190, N-(5-((2-(cyclopentyl(methyl)amino)ethyl)carbamoyl)-3-methylthiophen-2-yl)-2-(1-methyl-1H-pyrazol-4-yl)pyrazolo[5,1-b]thiazole-7-carboxamide]
IC50 [1]: 398 nM | IC50 (PDGFRβ; PDGFR Cellular IC50): 147 nM

CCc1cc(C(=O)NCCN2CCCC23CCC3)sc1NC(=O)c1cnn2cc(-c3cnn(C)c3)sc12 [Example 205, N-(5-((2-(5-azaspiro[3.4]octan-5-yl)ethyl)carbamoyl)-3-ethylthiophen-2-yl)-2-(1-methyl-1H-pyrazol-4-yl)pyrazolo[5,1-b]thiazole-7-carboxamide]
IC50 [1]: 107 nM | IC50 (PDGFRβ; read-out: PDGFR Cellular IC50): 562 nM

Cc1cc(C(=O)NCCN2CCCC(O)C2)sc1NC(=O)c1cnn2cc(-c3cnn(C)c3)sc12 (centres unmarked) [Example 200, N-(5-((2-(3-hydroxypiperidin-1-yl)ethyl)carbamoyl)-3-methylthiophen-2-yl)-2-(1-methyl-1H-pyrazol-4-yl)pyrazolo[5,1-b]thiazole-7-carboxamide]
IC50 [1]: 2210 nM | IC50 (PDGFRβ; read-out: PDGFR Cellular IC50): > 3000 nM

Cc1ncc(NC(=O)CCCN2CCC23CCC3)cc1NC(=O)c1cnn2cc(-c3cnn(C)c3)sc12 [Example 215, N-(5-(4-(1-azaspiro[3.3]heptan-1-yl)butanamido)-2-methylpyridin-3-yl)-2-(1-methyl-1H-pyrazol-4-yl)pyrazolo[5,1-b]thiazole-7-carboxamide]
IC50 [1]: 16.8 nM | IC50 (PDGFRβ; PDGFR Cellular IC50): 80.1 nM

Cc1cc(C(=O)NCCN2CCCC2(C)C)sc1NC(=O)c1cnn2cc(-c3ccc(N)nc3)sc12 [Example 184, 2-(6-aminopyridin-3-yl)-N-(5-((2-(2,2-dimethylpyrrolidin-1-yl)ethyl)carbamoyl)-3-methylthiophen-2-yl)pyrazolo[5,1-b]thiazole-7-carboxamide]
IC50 [1]: 829 nM | IC50 (PDGFRβ; read-out: PDGFR Cellular IC50): 1630 nM

Cc1cc(C(=O)NCCN2CCC(CO)CC2)sc1NC(=O)c1cnn2cc(-c3cnn(C)c3)sc12 [Example 193, N-(5-((2-(4-(hydroxymethyl)piperidin-1-yl)ethyl)carbamoyl)-3-methylthiophen-2-yl)-2-(1-methyl-1H-pyrazol-4-yl)pyrazolo[5,1-b]thiazole-7-carboxamide]
IC50 [1]: > 3000 nM | IC50 (PDGFRβ; read-out: PDGFR Cellular IC50): > 3000 nM

Cc1ncc(C(=O)NCCNCCO)cc1NC(=O)c1cnn2cc(-c3cnn(C)c3)sc12 [Example 234, N-(5-((2-((2-hydroxyethyl)amino)ethyl)carbamoyl)-2-methylpyridin-3-yl)-2-(1-methyl-1H-pyrazol-4-yl)pyrazolo[5,1-b]thiazole-7-carboxamide]
IC50 [1]: 283 nM | IC50 (PDGFRβ; read-out: PDGFR Cellular IC50): > 3000 nM

Cc1ncc(C(=O)NCCN2CCCC2)cc1NC(=O)c1cnn2cc(-c3cnn(C)c3)sc12 [Example 219, 2-(1-Methyl-1H-pyrazol-4-yl)-N-(2-methyl-5-((2-(pyrrolidin-1-yl)ethyl)carbamoyl)pyridin-3-yl)pyrazolo[5,1-b]thiazole-7-carboxamide]
IC50 [1]: 14 nM | IC50 (PDGFRβ; read-out: PDGFR Cellular IC50): 123 nM

Cc1cc(C(=O)NCCN2CC[C@@H](O)C2)sc1NC(=O)c1cnn2cc(-c3cnn(C)c3)sc12 [Example 194, (R)—N-(5-((2-(3-hydroxypyrrolidin-1-yl)ethyl)carbamoyl)-3-methylthiophen-2-yl)-2-(1-methyl-1H-pyrazol-4-yl)pyrazolo[5,1-b]thiazole-7-carboxamide]
IC50 [1]: > 3000 nM | IC50 (PDGFRβ; read-out: PDGFR Cellular IC50): > 3000 nM

Cc1cc(C(=O)NCCN2CCCC2(C)C)sc1NC(=O)c1cnn2cc(-c3ccn(C)n3)sc12 [Example 188, N-(5-((2-(2,2-dimethylpyrrolidin-1-yl)ethyl)carbamoyl)-3-methylthiophen-2-yl)-2-(1-methyl-1H-pyrazol-3-yl)pyrazolo[5,1-b]thiazole-7-carboxamide]
IC50 [1]: 683 nM | IC50 (PDGFRβ; read-out: PDGFR Cellular IC50): 347 nM

Cc1ncc(C(=O)NC[C@H]2CCCN2CCO)cc1NC(=O)c1cnn2cc(-c3cnn(C)c3)sc12 [Example 236, (R)—N-(5-(((1-(2-hydroxyethyl)pyrrolidin-2-yl)methyl)carbamoyl)-2-methylpyridin-3-yl)-2-(1-methyl-1H-pyrazol-4-yl)pyrazolo[5,1-b]thiazole-7-carboxamide]
IC50 [1]: 83.6 nM | IC50 (PDGFRβ; read-out: PDGFR Cellular IC50): 677 nM

Cc1cc(C(=O)NCCN(C)C2CCOCC2)sc1NC(=O)c1cnn2cc(-c3cnn(C)c3)sc12 [Example 192, 2-(1-methyl-1H-pyrazol-4-yl)-N-(3-methyl-5-((2-(methyl(tetrahydro-2H-pyran-4-yl)amino)ethyl)carbamoyl)thiophen-2-yl)pyrazolo[5,1-b]thiazole-7-carboxamide]
IC50 [1]: 1380 nM | IC50 (PDGFRβ; read-out: PDGFR Cellular IC50): > 3000 nM

Cc1ncc(C(=O)NCCN2C[C@H]3CC[C@@H]2C3)cc1NC(=O)c1cnn2cc(-c3cnn(C)c3C)sc12 [Example 208, N-(5-((2-((1R,4S)-2-azabicyclo[2.2.1]heptan-2-yl)ethyl)carbamoyl)-2-methylpyridin-3-yl)-2-(1,5-dimethyl-1H-pyrazol-4-yl)pyrazolo[5,1-b]thiazole-7-carboxamide]
IC50 [1]: 4.3 nM | IC50 (PDGFRβ; read-out: PDGFR Cellular IC50): 96 nM

Cc1ncc(C(=O)NCCN2CC3CCC2C3)cc1NC(=O)c1cnn2cc(-c3cn(C)nc3C)sc12 (centres unmarked) [Example 212, N-(5-((2-(2-azabicyclo[2.2.1]heptan-2-yl)ethyl)carbamoyl)-2-methylpyridin-3-yl)-2-(1,3-dimethyl-1H-pyrazol-4-yl)pyrazolo[5,1-b]thiazole-7-carboxamide]
IC50 [1]: 1.3 nM | IC50 (PDGFRβ; read-out: PDGFR Cellular IC50): 104 nM

Cn1cc(-c2cn3ncc(C(=O)Nc4cc(C(=O)NCCN5CCCC5(C)C)ccc4F)c3s2)cn1 [Example 207, N-(5-((2-(2,2-dimethylpyrrolidin-1-yl)ethyl)carbamoyl)-2-fluorophenyl)-2-(1-methyl-1H-pyrazol-4-yl)pyrazolo[5,1-b]thiazole-7-carboxamide]
IC50 [1]: 4.4 nM | IC50 (PDGFRβ; read-out: PDGFR Cellular IC50): 3.3 nM

Cc1ncc(NC(=O)CN2CCN(C)CC2)cc1NC(=O)c1cnn2cc(-c3cnn(C)c3)sc12 [Example 232, 2-(1-methyl-1H-pyrazol-4-yl)-N-(2-methyl-5-(2-(4-methylpiperazin-1-yl)acetamido)pyridin-3-yl)pyrazolo[5,1-b]thiazole-7-carboxamide]
IC50 [1]: 751 nM | IC50 (PDGFRβ; read-out: PDGFR Cellular IC50): 1730 nM

Cc1ncc(NC(=O)CN2CCc3cnn(C)c3C2)cc1NC(=O)c1cnn2cc(-c3cnn(C)c3)sc12 [Example 17, 2-(1-methyl-1H-pyrazol-4-yl)-N-(2-methyl-5-(2-(1-methyl-4,5-dihydro-1H-pyrazolo[3,4-c]pyridin-6 (7H)-yl)acetamido)pyridin-3-yl)pyrazolo[5,1-b]thiazole-7-carboxamide]
IC50 [1]: 6 nM | IC50 (PDGFRβ; read-out: PDGFR Cellular IC50): 69.5 nM

Cc1ncc(C(=O)NCCN2CCCC2)cc1NC(=O)c1cnn2cc(-c3cnn(C)c3C)sc12 [Example 220, 2-(1,5-Dimethyl-1H-pyrazol-4-yl)-N-(2-methyl-5-((2-(pyrrolidin-1-yl)ethyl)carbamoyl)pyridin-3-yl)pyrazolo[5,1-b]thiazole-7-carboxamide]
IC50 [1]: 5 nM | IC50 (PDGFRβ; read-out: PDGFR Cellular IC50): 59 nM

Cc1ncc(C(=O)NCCN2CCCC2)cc1NC(=O)c1cnn2cc(-c3cnn(CCC(O)CO)c3)sc12 (centres unmarked) [Example 222, 2-(1-(3,4-Dihydroxybutyl)-1H-pyrazol-4-yl)-N-(2-methyl-5-((2-(pyrrolidin-1-yl)ethyl)carbamoyl)pyridin-3-yl)pyrazolo[5,1-b]thiazole-7-carboxamide]
IC50 [1]: 16.5 nM | IC50 (PDGFRβ; read-out: PDGFR Cellular IC50): 989 nM
